Tests used:
Hela cells [1] = test: Hela cells pre-sensitized with cytokines for 2 days, fresh medium 3 days, WST-1 on day 5 (Experiments 9, 10); format: cell-based; conditions: for effect on the maximum cytotoxic effect of IFN-γ: Experiment 9: in combination with IFN-γ
Experimental: Hela cells were pre-sensitized with IFN-γ, and IFN-γ in combination with other cytokines for 2 days. The pre-sensitized Hela cells were then cultured with fresh complete RPMI 1640 for another 3 days. Cell viability was measured by WST-1 assay on day 5.
The pre-sensitized Hela cells were cultured with fresh complete RPMI 1640 for another 3 days. Cell viability was measured by WST-1 assay on day 5.

Hela cells [2] = test: Hela cells pre-sensitized with cytokines, 4 Gy gamma radiation, WST-1 on day 5 (Experiments 7, 8, 11, 12, 13); format: cell-based
Experimental: (§1) Hela cells were pre-sensitized for 2 days with each cytokine listed on FIG. 29. The pre-sensitized Hela cells were thereafter trypsinzed, washed, and irradiated with 4 Gy of gamma radiation. The irradiated cells were plated in 96-well plate at 5000 cells per well in 200 μl of complete medium. Cell viability was measured by WST-1 reagent on day 5.
as §1, with “by individual cytokines, combinations or all cytokines.” for “with each cytokine listed on FIG. 29.”, “harvested,” for “trypsinzed,”, “RPMI 1640” for “complete”, “assay” for “reagent”
Hela cells were pre-sensitized with various combinations of cytokines identified in FIG. 33. The pre-sensitized Hela cells were made single suspension and irradiated by 4 Gy of gamma radiation. The irradiated cells were plated in 96-well plate at 5000 cells per well in 200 μl RPMI 1640 medium. Cell viability was measured by WST-1 assay on day 5.
Hela cells were pre-sensitized for 2 days with CD4+ T cells, a combination of [IFN-γ/TNF-α/IL-2/Il-6], or a combination of all cytokines. The pre-sensitized cells were thereafter placed into a single suspension and irradiated by 4 Gy of gamma radiation. The irradiated cells were plated in 96-well plate at 5000 cells per well in 200 μl RPMI 1640 medium. Cell viability was measured by WST-1 assay on day 5.
Another experiment was performed similar to experiment 16, except that [IFN-γ/TNF-α] was used instead of the combination of [IFN-γ/TNF-α/Il-2/Il-6].

## TNF-α
Hela cells [1]
  effect on the maximum cytotoxic effect of IFN-γ: added effect

## GM-CSF: cytokine
Hela cells [1]
  effect on the maximum cytotoxic effect of IFN-γ: added effect

## IFN-γ: cytokine
Hela cells [2]; Experiment 7: each cytokine 2 days, 4 Gy
  contribution to enhanced effect of gamma irradiation: major factor contributing to the enhanced effect of gamma irradiation
Hela cells [2]; Experiment 11: 4 Gy
  synergistic effect with gamma radiation: Synergistic effect

B1: IFN-γ: cytokine (protein, UniProt P01579 24-161, looked up)
Interferon gamma: QDPYVKEAENLKKYFNAGHSDVADNGTLFLGILKNWKEESDRKIMQSQIVSFYFKLFKNFKDDQSIQKSVETIKEDMNVKFFNSNKKKRDDFEKLTNYSVTDLNVQRKAIHELIQVMAELSPAAKTGKRKRSQMLFRG
Hela cells [2]; Experiment 8: individual cytokines, combinations or all cytokines 2 days, 4 Gy
  contribution to cytotoxicity of gamma irradiation: contributes to enhance cytotoxicity of gamma irradiation
Hela cells [1]; Experiment 9: 2 days pre-sensitization, 3 days fresh medium
  contribution to cytotoxicity: contributes to enhance cytotoxicity of gamma irradiation
